Test results from patent publication US20230257385A1, “SALT AND SOLID FORMS OF TABERNANTHALOG” (priority 2021, published 2023).

Tests used:
[1] = Equilibrium humidity evaluation 75% RH/40° C., 10 days (Example 8, Experiment 6); type: physicochemical
Method: The experimental procedure that accompany this experiment is provided in Section G.ii.
All forms were maintained under constant equilibrium humidity (75% RH). XRPD, DSC, TGA, PLM and ^1H NMR analyses were performed on the absorbents at t=5 d and t=10 d, to confirm their physical fates and to determine the extent of residual solvent exchange or sequestration.
100 mg portions of Tabernanthalog salts ([…]) were placed in the relevant open vials. The powders were finely divided and distributed evenly over the base of the vial, such that equal material coverage across the panel was observed. These samples were then maintained 40° C. under 75% RH. The samples were sub-sampled at intervals of 5 and 10 days and analyzed by ^1H NMR, HPLC, XRPD, DSC, TGA and PLM, for evidence of phase change or chemical degradation.

[2] = type: physicochemical; conditions: salt screen, Experiment 2
Method: Tabernanthalog (native) (50 mg, 1 wt) was charged to a solution of the relevant counter ion (1.0 mol equivalence of counter ion) in ethanol (5.0 vol, 250 μl). The mixtures were warmed to 85° C. and small aliquots of water were added until dissolution occurred (Table 212 for additional charges of solvent). The solutions were cooled and allowed to stand undisturbed under sub-ambient conditions overnight (Table 211). […] Products were isolated via centrifugation. The corresponding pellets were sub-sampled and analyzed wet by XRPD; after which, they were dried at 40° C. under reduced pressure over 20 h and reanalyzed by XRPD. […] Once the crystallization experiments were completed, salt formation was confirmed by ^1H NMR, XRPD, DSC and TGA.

[3] = Solubility determinations in SIF buffers FaSSIF, FeSSIF, FaSSGF (Example 8, Experiment 5)
Method: The temperature was maintained at 37° C. for 24 h. […] The suspensions were sampled at the relevant time points and centrifuged. The centrifuged pellets, obtained at the time points were analysed by XRPD as a wet pellet and dried, for evidence of form change.
The temperature was maintained at 37° C. for 24 h.
The suspension was sampled at the relevant time points and centrifuged. […] The centrifuged pellets, obtained at the time points were analyzed by XRPD as a wet pellet and dried, for evidence of form change.

[4] = Dynamic vapour sorption (DVS) of selected salts (Example 8); type: physicochemical
Method: DVS: The moisture sorption properties of the feed API were analyzed by DVS Intrinsic instrument (Surface Measurement System). Approximately 20-50 mg of API was weighed on an aluminum pan and loaded into the instrument equilibrated at 25° C. The sample was allowed to equilibrate under dry atmosphere (0% relative humidity) for 60 minutes before increasing the humidity from 0% to 30% at 5% step increment and from 30% to 90% at 10% step increment. A desorption cycle was also applied from 90% to 30% (10% step) and from 30% to 0% (5% decrement). A rate of change in mass per time unit (dm/dt) of 0.002%/min was set as the equilibrium parameter. Kinetic and isotherm graphs were calculated.

[5] = input batch 3-B1, before SIF buffer

COc1ccc2c3c([nH]c2c1)CCN(C)CC3.O=C(O)c1ccccc1 [Sample 6-C1]
Tabernanthalog RRT = 1.00 (trended HPLC data, chemical purity) ([1]; Benzoate salt, t = 5 d at 75% RH at 40° C.): 98.36

C/C=C/C=C/C(=O)O.COc1ccc2c3c([nH]c2c1)CCN(C)CC3 [Sample 6-D1]
Tabernanthalog RRT = 1.00 (trended HPLC data, chemical purity) ([1]; Sorbate salt, t = 5 d at 75% RH at 40° C.): 99.52

C/C=C/C=C/C(=O)O.COc1ccc2c3c([nH]c2c1)CCN(C)CC3 [Sample 6-D2]
Tabernanthalog RRT = 1.00 (trended HPLC data, chemical purity) ([1]; Sorbate salt, t = 10 d at 75% RH at 40° C.): 99.70

COc1ccc2c3c([nH]c2c1)CCN(C)CC3.O=C(O)c1ccccc1 [Sample 16-C2]
Tabernanthalog RRT = 1.00 (trended HPLC data, chemical purity) ([1]; Benzoate salt, t = 10 d at 75% RH at 40° C.): 98.17

COc1ccc2c3c([nH]c2c1)CCN(C)CC3.O=C(O)c1ccccc1 [Tabernanthalog · Benzoate]
Discrete melt (DSC)? [2]: ✓
Flat baseline (DSC)? [2]: ✓
Flat baseline pre-melt (TGA)? [2]: ✓
Unique XRPD? [2]: ✓
Trended HPLC data, Tabernanthalog (RRT 1.00) [3, 5]: 99.23 % area
Trended HPLC data, peak at RRT 0.86 [3, 5]: 0.02 % area
Trended HPLC data, peak at RRT 0.89 [3, 5]: 0.04 % area
Trended HPLC data, peak at RRT 0.93 [3, 5]: 0.61 % area
Trended HPLC data, peak at RRT 1.09 [3, 5]: 0.08 % area
Trended HPLC data, peak at RRT 1.11 [3, 5]: 0.02 % area
Trended HPLC data, Tabernanthalog (RRT 1.00) ([3]; t = 1 h in FaSSGF): 99.33 % area
Trended HPLC data, peak at RRT 0.93 ([3]; t = 1 h in FaSSGF): 0.55 % area
Trended HPLC data, peak at RRT 1.09 ([3]; t = 1 h in FaSSGF): 0.07 % area
Trended HPLC data, peak at RRT 1.10 ([3]; t = 1 h in FaSSGF): 0.02 % area
Trended HPLC data, peak at RRT 1.11 ([3]; t = 1 h in FaSSGF): 0.03 % area
Trended HPLC data, Tabernanthalog (RRT 1.00) ([3]; t = 1 h in FaSSIF): 98.67 % area
Trended HPLC data, peak at RRT 0.93 ([3]; t = 1 h in FaSSIF): 0.92 % area
Trended HPLC data, peak at RRT 1.08 ([3]; t = 1 h in FaSSIF): 0.13 % area
Trended HPLC data, peak at RRT 1.11 ([3]; t = 1 h in FaSSIF): 0.28 % area
Trended HPLC data, Tabernanthalog (RRT 1.00) ([3]; t = 1 h in FeSSIF): 99.05 % area
Trended HPLC data, peak at RRT 0.93 ([3]; t = 1 h in FeSSIF): 0.84 % area
Trended HPLC data, peak at RRT 1.08 ([3]; t = 1 h in FeSSIF): 0.11 % area
Trended HPLC data, Tabernanthalog (RRT 1.00) ([3]; t = 3 h in FaSSGF): 99.34 % area
Trended HPLC data, peak at RRT 0.93 ([3]; t = 3 h in FaSSGF): 0.58 % area
Trended HPLC data, peak at RRT 1.09 ([3]; t = 3 h in FaSSGF): 0.07 % area
Trended HPLC data, Tabernanthalog (RRT 1.00) ([3]; t = 3 h in FaSSIF): 98.77 % area
Trended HPLC data, peak at RRT 0.93 ([3]; t = 3 h in FaSSIF): 1.04 % area
Trended HPLC data, peak at RRT 1.08 ([3]; t = 3 h in FaSSIF): 0.20 % area
Trended HPLC data, Tabernanthalog (RRT 1.00) ([3]; t = 3 h in FeSSIF): 99.03 % area
Trended HPLC data, peak at RRT 0.93 ([3]; t = 3 h in FeSSIF): 0.81 % area
Trended HPLC data, peak at RRT 1.08 ([3]; t = 3 h in FeSSIF): 0.10 % area
Trended HPLC data, peak at RRT 1.11 ([3]; t = 3 h in FeSSIF): 0.06 % area
Trended HPLC data, Tabernanthalog (RRT 1.00) ([3]; t = 6 h in FaSSGF): 99.33 % area
Trended HPLC data, peak at RRT 0.93 ([3]; t = 6 h in FaSSGF): 0.59 % area
Trended HPLC data, peak at RRT 1.09 ([3]; t = 6 h in FaSSGF): 0.08 % area
Trended HPLC data, Tabernanthalog (RRT 1.00) ([3]; t = 6 h in FaSSIF): 98.58 % area
Trended HPLC data, peak at RRT 0.93 ([3]; t = 6 h in FaSSIF): 1.26 % area
Trended HPLC data, peak at RRT 1.08 ([3]; t = 6 h in FaSSIF): 0.16 % area
Trended HPLC data, Tabernanthalog (RRT 1.00) ([3]; t = 6 h in FeSSIF): 98.69 % area
Trended HPLC data, peak at RRT 0.93 ([3]; t = 6 h in FeSSIF): 1.00 % area
Trended HPLC data, peak at RRT 1.08 ([3]; t = 6 h in FeSSIF): 0.15 % area
Trended HPLC data, peak at RRT 1.10 ([3]; t = 6 h in FeSSIF): 0.07 % area
Trended HPLC data, peak at RRT 1.11 ([3]; t = 6 h in FeSSIF): 0.09 % area
Trended HPLC data, Tabernanthalog (RRT 1.00) ([3]; t = 24 h in FaSSGF): 99.29 % area
Trended HPLC data, peak at RRT 0.93 ([3]; t = 24 h in FaSSGF): 0.63 % area
Trended HPLC data, peak at RRT 1.09 ([3]; t = 24 h in FaSSGF): 0.08 % area
Trended HPLC data, Tabernanthalog (RRT 1.00) ([3]; t = 24 h in FaSSIF): 98.01 % area
Trended HPLC data, peak at RRT 0.93 ([3]; t = 24 h in FaSSIF): 1.51 % area
Trended HPLC data, peak at RRT 1.08 ([3]; t = 24 h in FaSSIF): 0.24 % area
Trended HPLC data, peak at RRT 1.10 ([3]; t = 24 h in FaSSIF): 0.11 % area
Trended HPLC data, peak at RRT 1.11 ([3]; t = 24 h in FaSSIF): 0.13 % area
Trended HPLC data, Tabernanthalog (RRT 1.00) ([3]; t = 24 h in FeSSIF): 98.17 % area
Trended HPLC data, peak at RRT 0.89 ([3]; t = 24 h in FeSSIF): 0.15 % area
Trended HPLC data, peak at RRT 0.93 ([3]; t = 24 h in FeSSIF): 1.36 % area
Trended HPLC data, peak at RRT 1.08 ([3]; t = 24 h in FeSSIF): 0.19 % area
Trended HPLC data, peak at RRT 1.10 ([3]; t = 24 h in FeSSIF): 0.13 % area

COc1ccc2c3c([nH]c2c1)CCN(C)CC3.O=C(O)C(O)C(O)C(=O)O [tabernanthalog tartrate salt]
change in chemical purity (trended HPLC) ([1]; 75% RH/40° C., after 10 days): largest decrease in chemical purity
water uptake / hydrate formation (TGA, DSC) ([1]; 75% RH/40° C., t=5 d and t=10 d): no significant water absorption
powder diffraction pattern versus input (form stability) ([1]; 75% RH/40° C., t=5 days and t=10 days): no significant changes to the powder diffraction pattern
Tabernanthalog RRT = 1.00 (trended HPLC data, chemical purity) ([1]; Tartrate salt, input before humidity exposure): 99.39
DVS sorption/desorption isotherm ([4]; 0 to 90 to 0% RH, 25° C., dm/dt 0.002%/min): hygroscopic type of isotherm
DVS 0 to 90 to 0% RH (dm/dt <0.002%), mass change ([4]; desorption, 0.0% RH): 0.02%
DVS 0 to 90 to 0% RH (dm/dt <0.002%), mass change ([4]; desorption, 5.0% RH): 0.03%
DVS 0 to 90 to 0% RH (dm/dt <0.002%), mass change ([4]; desorption, 10.0% RH): 0.04%
DVS 0 to 90 to 0% RH (dm/dt <0.002%), mass change ([4]; desorption, 15.0% RH): 0.07%
DVS 0 to 90 to 0% RH (dm/dt <0.002%), mass change ([4]; desorption, 20.0% RH): 0.08%
DVS 0 to 90 to 0% RH (dm/dt <0.002%), mass change ([4]; desorption, 25.0% RH): 0.11%
DVS 0 to 90 to 0% RH (dm/dt <0.002%), mass change ([4]; desorption, 30.0% RH): 0.13%
DVS 0 to 90 to 0% RH (dm/dt <0.002%), mass change ([4]; desorption, 40.0% RH): 0.20%
DVS 0 to 90 to 0% RH (dm/dt <0.002%), mass change ([4]; desorption, 50.0% RH): 0.27%
DVS 0 to 90 to 0% RH (dm/dt <0.002%), mass change ([4]; desorption, 60.0% RH): 0.37%
DVS 0 to 90 to 0% RH (dm/dt <0.002%), mass change ([4]; desorption, 70.0% RH): 0.51%
DVS 0 to 90 to 0% RH (dm/dt <0.002%), mass change ([4]; desorption, 80.0% RH): 0.75%
DVS 0 to 90 to 0% RH (dm/dt <0.002%), mass change ([4]; desorption, 90.0% RH): 1.34%
DVS 0 to 90 to 0% RH (dm/dt <0.002%), mass change ([4]; sorption, 0.0% RH): 0.00%
DVS 0 to 90 to 0% RH (dm/dt <0.002%), mass change ([4]; sorption, 5.0% RH): 0.01%
DVS 0 to 90 to 0% RH (dm/dt <0.002%), mass change ([4]; sorption, 10.0% RH): 0.02%
DVS 0 to 90 to 0% RH (dm/dt <0.002%), mass change ([4]; sorption, 15.0% RH): 0.04%
DVS 0 to 90 to 0% RH (dm/dt <0.002%), mass change ([4]; sorption, 20.0% RH): 0.05%
DVS 0 to 90 to 0% RH (dm/dt <0.002%), mass change ([4]; sorption, 25.0% RH): 0.07%
DVS 0 to 90 to 0% RH (dm/dt <0.002%), mass change ([4]; sorption, 30.0% RH): 0.10%
DVS 0 to 90 to 0% RH (dm/dt <0.002%), mass change ([4]; sorption, 40.0% RH): 0.16%
DVS 0 to 90 to 0% RH (dm/dt <0.002%), mass change ([4]; sorption, 50.0% RH): 0.24%
DVS 0 to 90 to 0% RH (dm/dt <0.002%), mass change ([4]; sorption, 60.0% RH): 0.34%
DVS 0 to 90 to 0% RH (dm/dt <0.002%), mass change ([4]; sorption, 70.0% RH): 0.48%
DVS 0 to 90 to 0% RH (dm/dt <0.002%), mass change ([4]; sorption, 80.0% RH): 0.72%
DVS 0 to 90 to 0% RH (dm/dt <0.002%), mass change ([4]; sorption, 90.0% RH): 1.34%
